Series [1] has as its system Plasmodium falciparum. Kind of series: Antiplasmodial activity against chloroquine-sensitive Plasmodium falciparum 3D7 measured after 72 hrs by DAPI staining based high throughput screening assay. Format: functional. As to conditions: 3D7, 72 h.
The nature of series [2]: Growth inhibition of HEK293 cells at 100 uM relative to control. Format: cell-based. As to conditions: human, read-out: GI.
Series [3] can be described thus: Selectivity index, ratio of IC50 for HEK293 cells to IC50 for chloroquine-resistant Plasmodium falciparum Dd2. It counts as toxicity. As to conditions: human; read-out: Ratio IC50.
Series [4] has as its system Plasmodium falciparum. Briefly: Antiplasmodial activity against chloroquine-resistant Plasmodium falciparum Dd2 measured after 72 hrs by DAPI staining based high throughput screening assay. It counts as functional. As to conditions: Dd2, 72 h.
Series [5] has as its system HEK293. Briefly: Growth inhibition of HEK293 cells. Format: cell-based. As to conditions: Homo sapiens.
A short description of series [6]: Growth inhibition of HEK293 cells at 20 uM relative to control. It counts as cell-based. As to conditions: human, read-out: GI.
Series [7] concerns Plasmodium falciparum. Briefly: Antiplasmodial activity against chloroquine-resistant Plasmodium falciparum Dd2 at 40 uM measured after 72 hrs by DAPI staining based high throughput screening assay relative to control. Format: functional.
Series [8] is described as follows: Growth inhibition of HEK293 cells at 40 uM relative to control. Format: cell-based. As to conditions: human, read-out: GI.
Series [9] has as its system Plasmodium falciparum. Kind of series: Antiplasmodial activity against chloroquine-resistant Plasmodium falciparum Dd2. It counts as functional.
Series [10] deals with Plasmodium falciparum. Briefly: Antiplasmodial activity against chloroquine-sensitive Plasmodium falciparum 3D7. Format: functional.
Series [11] in a line: Growth inhibition of HEK293 cells at 120 uM relative to control. It counts as cell-based. As to conditions: human, read-out: GI.

pIC50: −log10 of the molar value. Where only a bound is given, the exact number is not on record here.

A word on the pIC50: it is the IC50 on a negative log10 scale, so that one unit is a factor of ten. Low values mean a large IC50, high ones a small IC50. `CC(C)C[C@H]1C2=C(O[C@@]3(C)C=C4[C@@H](C[C@@H]13)[C@@H](C)CC[C@@H]4C(C)C)C(C)(C)C(=O)C(C)(C)C2=O` showed a negative-log IC50 (pIC50) in [1] of 4.57. Further, in [2], the inhibition at 100 µM turned out to be 68%.

As for `CC(C)CC(=O)c1c(O)cc2c(c1O)[C@@H](CC(C)C)C1=C(O2)C(C)(C)C(=O)C(C)(C)C1=O`, the selectivity ratio in [3] is under 10. Moreover, the pIC50 in [1] was 5.74; in series [4], 5.40; in [5] it was 4.94.

In series [1], `C[C@H]1[C@H](OC(=O)CCC(=O)O)O[C@@H]2O[C@@]3(C)CC[C@H]4[C@H](C)CC[C@@H]1[C@@]24OO3` [ARTESUNATE] had a negative-log IC50 (pIC50) of 9.00. Further, in [6], the inhibition at 20 µM worked out at 94%.

As to `CCc1nc(N)nc(N)c1-c1ccc(Cl)cc1` [PYRIMETHAMINE], in series [1], the pIC50 is 8.10. The compound further had an Activity in series [7] of 62%. The inhibition at 40 µM in [8] was 62%.

The compound `CC(C)C[C@H]1C[C@@]2(CC[C@H]3C[C@@H]2C3(C)C)OC2=C1C(=O)C(C)(C)C(=O)C2(C)C` gave a pIC50 in series [1] of 5.17.

With `CC(C)C[C@@H]1OC12C(=O)C(C)(C)C(=O)C(C)(C)C2=O`, the selectivity ratio in [3] is under 10. The pIC50 in [1] was 5.52; in series [4], 5.60; in series [5], 4.80.

Consider `COc1ccc2nc3cc(Cl)ccc3c(Nc3cc(CN4CCCC4)c(O)c(CN4CCCC4)c3)c2n1` [PYRONARIDINE], for which the pIC50 in series [1] is 7.92; in [4] it was 7.74; in [5], 5.28.

The compound `C=C1CC[C@H]2[C@H](CC(C)C)C3=C(O[C@]2(C)CC[C@@H]2[C@@H]1CC2(C)C)C(C)(C)C(=O)C(C)(C)C3=O` showed a pIC50 in series [1] of 4.95.

As for `COc1ccc(C[C@H](N)C(=O)N[C@H]2[C@@H](O)[C@H](n3cnc4c(N(C)C)ncnc43)O[C@@H]2CO)cc1` [PUROMYCIN], the pIC50 was 7.21 in [4] and 6.40 in series [5].

In turn, `CC(C)[C@]12OC3=C(C(=O)C(C)(C)C(=O)C3(C)C)[C@H]1C1=C(O2)C(C)(C)C(=O)C(C)(C)C1=O` gave a pIC50 in [1] of 4.85.

Turning to `CC(C)CC(=O)c1c(O)cc(O)c2c1O[C@@]1(C(C)C)OC3=C(C(=O)C(C)(C)C(=O)C3(C)C)[C@@H]21`, the pIC50 in series [1] is 4.98. In addition, in series [2], the inhibition at 100 µM is 59%.

In [1], `C=C1CC[C@H]2[C@@H](CC(C)C)C3=C(O[C@]2(C)CC[C@@H]2[C@@H]1CC2(C)C)C(C)(C)C(=O)C(C)(C)C3=O` showed a pIC50 of 5.05.

Turning to `CC(C)CC(=O)c1c(O)c2c(c3c1O[C@]1(C(C)C)OC4=C(C(=O)C(C)(C)C(=O)C4(C)C)[C@H]31)OC1=C(C(=O)C(C)(C)C(=O)C1(C)C)[C@@H]2CC(C)C`, the values for the pIC50 in [9] and in series [10] were 5.83 and 6.00, respectively.

For the compound `Cc1c(O)c(C(=O)CCc2ccccc2)c2c(c1O)[C@@H]1C3=C(O[C@]1(C(C)C)O2)C(C)(C)C(=O)C(C)(C)C3=O`, the pIC50 in [9] is 6.36; in series [1] it was 5.97; in series [10], 6.54. Moreover, the inhibition at 120 µM in series [11] came to 85%.

The compound `Cc1c2c(c(O)c3c1OC1=C(C(=O)C(C)(C)C(=O)C1(C)C)[C@@H]3CC(C)C)C(=O)C[C@@H](c1ccccc1)O2` gave a negative logarithm of the IC50 (pIC50) in [1] of 4.97.

In the case of `CC(C)CC(C1=C(O)C(C)(C)C(=O)C(C)(C)C1=O)C1=C(O)C(C)(C)C(=O)C(C)(C)C1=O`, the pIC50 in series [9] is 5.06; in series [1], 6.36; in [10], 5.28. In [11], the inhibition at 120 µM was 42%.

For the origin of these results see ChEMBL document CHEMBL4017462, “Antiplasmodial β-triketones from the flowers of the Australian tree Angophora woodsiana” (Bioorg Med Chem Lett, 2017).
